According to ChEMBL document CHEMBL1165959, “Novel tricyclic Delta(2)-isoxazoline and 3-oxo-2-methyl-isoxazolidine derivatives: synthesis and binding affinity at neuronal nicotinic acetylcholine receptor subtypes” (Bioorg Med Chem, 2010):

Columns and labels:
[1] = biological target: Neuronal acetylcholine receptor; alpha4/beta2 (Rattus norvegicus, UniProt P09483+P12390); assay: Displacement of (+/-)-[3H]epibatidine from alpha4beta2 nAChR in rat cortical membrane; assay type: cell membranes
[2] = biological target: Neuronal acetylcholine receptor subunit alpha-7 (Rattus norvegicus, UniProt Q05941); assay: Displacement of [125I]alpha-Bungarotoxin from alpha7 nAChR in rat cortical membrane; assay type: cell membranes
Chain of Neuronal acetylcholine receptor subunit alpha-7 (Q05941 whole entry): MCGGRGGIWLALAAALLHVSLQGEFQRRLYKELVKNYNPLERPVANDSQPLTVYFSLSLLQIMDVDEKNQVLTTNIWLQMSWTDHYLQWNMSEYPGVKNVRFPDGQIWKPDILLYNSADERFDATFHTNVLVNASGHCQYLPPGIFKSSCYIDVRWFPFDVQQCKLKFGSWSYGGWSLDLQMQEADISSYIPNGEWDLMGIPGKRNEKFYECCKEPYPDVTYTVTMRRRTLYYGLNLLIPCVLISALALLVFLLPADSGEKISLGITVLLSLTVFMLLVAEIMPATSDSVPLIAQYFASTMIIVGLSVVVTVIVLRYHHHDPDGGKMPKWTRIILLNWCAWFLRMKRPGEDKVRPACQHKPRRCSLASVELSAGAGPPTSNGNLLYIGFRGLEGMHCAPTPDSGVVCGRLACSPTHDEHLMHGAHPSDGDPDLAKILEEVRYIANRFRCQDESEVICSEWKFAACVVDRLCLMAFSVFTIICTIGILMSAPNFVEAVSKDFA

Chain of Neuronal acetylcholine receptor; alpha4/beta2 (P09483 whole entry): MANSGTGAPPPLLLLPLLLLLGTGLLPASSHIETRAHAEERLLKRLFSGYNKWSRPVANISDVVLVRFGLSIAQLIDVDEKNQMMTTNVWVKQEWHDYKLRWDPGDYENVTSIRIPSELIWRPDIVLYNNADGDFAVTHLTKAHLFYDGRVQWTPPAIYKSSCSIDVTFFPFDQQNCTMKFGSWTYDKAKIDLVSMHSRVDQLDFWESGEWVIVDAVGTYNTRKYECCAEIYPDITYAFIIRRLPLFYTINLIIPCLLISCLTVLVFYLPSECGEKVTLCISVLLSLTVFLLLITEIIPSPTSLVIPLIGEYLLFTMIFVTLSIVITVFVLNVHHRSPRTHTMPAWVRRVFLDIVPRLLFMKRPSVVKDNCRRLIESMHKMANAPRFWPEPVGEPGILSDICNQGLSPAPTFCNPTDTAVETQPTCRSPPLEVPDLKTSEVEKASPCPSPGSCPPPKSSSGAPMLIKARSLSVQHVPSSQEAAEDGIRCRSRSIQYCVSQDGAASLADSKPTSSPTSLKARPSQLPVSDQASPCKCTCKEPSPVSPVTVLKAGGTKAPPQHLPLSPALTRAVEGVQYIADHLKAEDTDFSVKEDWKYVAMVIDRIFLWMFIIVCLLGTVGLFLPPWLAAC
Chain of Neuronal acetylcholine receptor; alpha4/beta2 (P12390 whole entry): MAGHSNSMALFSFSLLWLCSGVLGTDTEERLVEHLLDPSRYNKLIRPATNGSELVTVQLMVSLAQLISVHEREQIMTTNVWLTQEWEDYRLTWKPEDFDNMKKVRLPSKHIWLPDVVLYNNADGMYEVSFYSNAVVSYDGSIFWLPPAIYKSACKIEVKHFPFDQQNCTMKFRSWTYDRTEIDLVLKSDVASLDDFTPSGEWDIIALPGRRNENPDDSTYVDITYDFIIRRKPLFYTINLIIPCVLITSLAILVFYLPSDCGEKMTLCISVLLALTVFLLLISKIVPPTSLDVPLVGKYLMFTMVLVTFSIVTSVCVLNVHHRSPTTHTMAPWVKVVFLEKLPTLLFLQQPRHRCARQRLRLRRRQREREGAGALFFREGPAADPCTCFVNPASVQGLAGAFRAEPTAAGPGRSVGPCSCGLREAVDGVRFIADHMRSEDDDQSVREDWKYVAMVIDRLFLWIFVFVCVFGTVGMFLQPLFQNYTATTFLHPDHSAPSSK

| SMILES | Ki [1] | Ki [2] |
| --- | --- | --- |
| CC(=O)C1=CC[C@H]2CC[C@@H]1N2 | 0.094 µM | > 10 µM |
| BrC1=NOC2CC3CNCC(C3)C12 (centres undefined) | 0.92 µM | 28.5 µM |
| CN1OC2CC3CCC(N3)C2C1=O (centres undefined) | 50 µM | > 100 µM |
| BrC1=NOC2C3CCC(CC12)N3 (centres undefined) | 0.75 µM | 20 µM |
| CN1OC2C3CCC(CC2C1=O)N3 (centres undefined) | 100 µM | > 100 µM |
| O=c1cccc2n1C[C@@H]1CNC[C@H]2C1 [CYTISINICLINE] | 0.0004 µM | 0.3 µM |
| COC1=NOC2C3CCC(CC12)N3 (centres undefined) | 4.5 µM | 28.2 µM |
| CN1OC2CC3CNCC(C3)C2C1=O (centres undefined) | 79 µM | > 100 µM |
| COC1=NOC2CC3CNCC(C3)C12 (centres undefined) | 31 µM | 170 µM |
| COC1=NOC2CC3CCC(N3)C12 (centres undefined) | 53 µM | 68 µM |
| CN1OC2C3CNCC(C3)CC2C1=O (centres undefined) | 1.8 µM | 9.5 µM |
| BrC1=NOC2CC3CCC(N3)C12 (centres undefined) | 260 µM | 109 µM |
